Source: US20260215432A1, “ANTIMICROBIAL CONJUGATED OLIGOELECTROLYTES AND METHODS THEREOF” (National University of Singapore, priority 2023, published 2026)

Test system: MRSA
Assay: Transmission electron microscopy of treated cells
Assay type: cell-based, S. aureus
Conditions: 4 μg mL^−1 for 30 minutes
Procedure: Damage to the bacterial cell membrane was observed by transmission electron microscopy (TEM). S. aureus cells were incubated with DM6P at 4 μg mL^−1 for 30 minutes and fixed immediately to preserve the membrane ultrastructure as close to the point of cell death as possible. […] In FIG. 7d, cytoplasmic membrane separation, which is a key hallmark of plasmolysis was also observed in a cell, presumably in an earlier stage of death prior to leakage of intracellular components. These observations are consistent with micrographs from cells treated by membrane active AMPs Gramicidin S and PGLa. Taken together, these morphological features are in line with the central idea that TPP-COEs induce damage to the cellular membrane, similar to previously studied COEs. Cellular leakage, protein delocalization and inactivation, and small-molecule permeation are downstream observations frequently associated with cell membrane perturbations.
A mid-log culture of MRSA was treated either with DM6P at 4 Ig mL^−1 or PBS (control) and incubated for 30 minutes. Cells were then fixed with 4% glutaraldehyde at 4° C. overnight and collected by centrifugation (7000 rpm, 10 minutes). The cell pellets were post-fixed with 0.2% OsO4, serially dehydrated in a graded ethanol series, and embedded in an epoxy resin. […]

COc1cc(/C=C/c2ccc(OCCCCCC[P+](c3ccccc3)(c3ccccc3)c3ccccc3)c(OC)c2)ccc1OCCCCCC[P+](c1ccccc1)(c1ccccc1)c1ccccc1.[I-].[I-] [DM6P]
membrane damage by TEM: visible cellular shrinkage and membrane disintegration
